In patent US20090176811A1, “Substituted 5,6,7,8-Tetrahydro-pyrido[4,3-d]pyrimidine-2-yl Compounds and 5,6,7,8-Tetrahydro-quinazoline-2-yl Compounds” (GRUENENTHAL GmbH, priority 2004, published 2009):

How the values were obtained:
mGluR5 receptor = molecular target: T1, mGluR5 receptor (Sus scrofa, UniProt I3LUI7); assay: Affinity for the mGluR5 receptor ([3H]-MPEP binding, pig brain homogenate); details: 10 μM compound, 15 nM [3H]-MPEP
T1 construct: 450 μg of protein from brain homogenate is incubated; from tissue; host or cells: pig brain hemispheres without medulla, cerebellum and pons
T1 sequence (I3LUI7 19-1212): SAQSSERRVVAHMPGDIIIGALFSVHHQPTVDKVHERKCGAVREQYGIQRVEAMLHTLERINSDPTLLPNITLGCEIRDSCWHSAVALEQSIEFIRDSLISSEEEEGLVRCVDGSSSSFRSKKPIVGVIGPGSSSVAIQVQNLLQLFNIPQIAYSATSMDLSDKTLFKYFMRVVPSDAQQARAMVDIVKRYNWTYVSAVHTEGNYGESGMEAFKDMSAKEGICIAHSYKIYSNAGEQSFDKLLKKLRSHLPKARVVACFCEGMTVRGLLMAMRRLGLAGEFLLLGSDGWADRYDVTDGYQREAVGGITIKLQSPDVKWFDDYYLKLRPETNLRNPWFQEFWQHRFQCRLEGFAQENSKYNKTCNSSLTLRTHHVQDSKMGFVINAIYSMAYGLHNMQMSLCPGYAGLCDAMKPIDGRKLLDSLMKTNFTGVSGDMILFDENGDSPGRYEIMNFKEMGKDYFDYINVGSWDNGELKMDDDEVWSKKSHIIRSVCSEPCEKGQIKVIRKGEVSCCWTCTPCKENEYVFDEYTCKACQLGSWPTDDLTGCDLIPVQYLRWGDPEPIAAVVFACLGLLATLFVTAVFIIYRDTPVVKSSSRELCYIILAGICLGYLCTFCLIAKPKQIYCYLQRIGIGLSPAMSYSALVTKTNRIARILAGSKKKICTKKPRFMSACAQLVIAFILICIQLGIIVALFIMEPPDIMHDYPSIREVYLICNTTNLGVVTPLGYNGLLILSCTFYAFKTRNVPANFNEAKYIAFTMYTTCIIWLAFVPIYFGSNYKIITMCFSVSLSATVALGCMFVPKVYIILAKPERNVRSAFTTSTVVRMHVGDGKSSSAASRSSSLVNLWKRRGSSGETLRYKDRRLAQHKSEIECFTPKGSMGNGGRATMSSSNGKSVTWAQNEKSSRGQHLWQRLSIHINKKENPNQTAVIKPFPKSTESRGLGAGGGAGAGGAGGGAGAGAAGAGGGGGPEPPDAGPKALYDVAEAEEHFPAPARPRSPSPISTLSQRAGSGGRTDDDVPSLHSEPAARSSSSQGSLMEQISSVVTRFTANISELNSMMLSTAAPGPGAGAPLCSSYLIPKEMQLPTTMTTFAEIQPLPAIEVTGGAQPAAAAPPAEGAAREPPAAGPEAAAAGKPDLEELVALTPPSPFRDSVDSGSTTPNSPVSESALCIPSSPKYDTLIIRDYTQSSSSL
Protocol: III. Method for Determining Affinity for the mGluR5 Receptor
Pig brain homogenate is produced by homogenisation (Polytron Pt 3000, Kinematica AG, 10,000 rpm (revolutions per minute) for 90 seconds) of pig brain hemispheres without medulla, cerebellum and pons in a buffer of pH 8.0 (30 mM Hepes, Sigma, order number H3375+1 tablet Complete Roche Diagnostics, order number 1836145 made up to 100 ml) in a ratio of 1:20 (brain weight/volume) and differential centrifugation at 900 g and 40,000 g. 450 μg of protein from brain homogenate is incubated in each case in 250 μl incubation batches in 96-well microtitre plates with 15 nM ^3[H]-MPEP (Tocris, order number R1212) and the compounds to be investigated (in each case 10 μM in the test) in the above-stated buffer at room temperature for 60 minutes.
The batches are then filtered with the assistance of a Brandel Cell Harvester (Brandel, Grade Robotic 9600) on Unifilter plates with glass filter mats (Perkin Elmer, order number 6005177) and then rewashed 3 times with buffer of the above-stated composition using 250 μl per sample. The filter plates are then dried for 60 minutes at 55° C. Then 30 μl of Ultima Gold scintillating material (Packard BioScience, order number 6013159) is added per well and after 3 hours the samples are measured using the B counter ([…], Perkin Elmer). Nonspecific binding is determined by the addition of 10 μM 2-methyl-6-(phenylethynyl)-pyridine (Tocris, order number 1212).

NA transporter = molecular target: T2, NA transporter (Rattus norvegicus, UniProt Q63380); assay: Noradrenalin uptake inhibition in rat brain synaptosomes (hypothalamus); assay type: biochemical
T2 construct: from tissue; host or cells: rat hypothalamus synaptosomes (P2 fraction)
T2 sequence (Q63380 1-617): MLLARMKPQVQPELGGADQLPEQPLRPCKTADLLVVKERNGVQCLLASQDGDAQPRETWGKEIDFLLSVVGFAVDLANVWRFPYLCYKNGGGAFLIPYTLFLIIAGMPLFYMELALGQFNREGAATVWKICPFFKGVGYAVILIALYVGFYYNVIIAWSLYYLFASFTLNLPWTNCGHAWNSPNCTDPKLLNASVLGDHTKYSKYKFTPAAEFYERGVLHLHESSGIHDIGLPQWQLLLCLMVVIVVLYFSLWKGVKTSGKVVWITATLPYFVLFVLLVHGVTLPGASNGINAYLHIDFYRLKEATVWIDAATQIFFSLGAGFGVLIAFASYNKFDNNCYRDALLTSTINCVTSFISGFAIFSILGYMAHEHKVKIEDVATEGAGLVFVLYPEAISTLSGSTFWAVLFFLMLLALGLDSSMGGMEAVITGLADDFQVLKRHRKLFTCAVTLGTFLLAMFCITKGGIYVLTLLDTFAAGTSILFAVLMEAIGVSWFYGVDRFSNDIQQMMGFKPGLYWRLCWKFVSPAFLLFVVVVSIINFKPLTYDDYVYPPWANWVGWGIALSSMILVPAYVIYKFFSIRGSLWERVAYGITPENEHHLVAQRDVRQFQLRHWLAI
Description: (§1) I. Method for Determining Noradrenalin and 5-HT Uptake Inhibition:
(§2) Synaptosomes from rat brain regions are freshly isolated for in vitro studies, as described in the publication “The isolation of nerve endings from brain” by E. G. Gray and V. P. Whittaker, J. Anatomy 96, pages 79-88, 1962. The corresponding literature description is hereby introduced as a reference and is deemed to be part of the disclosure.
(§3) The tissue (hypothalamus for the determination of noradrenalin uptake inhibition and medulla and pons for the determination of 5-HT uptake inhibition) is homogenised in ice-cooled 0.32 M sucrose (100 mg of tissue/1 mL) in a glass homogeniser with Teflon pestle using five complete up and down strokes at 840 revolutions/minute.
(§4) The homogenate is centrifuged at 4° C. for 10 minutes at 1000 g. After subsequent centrifugation at 17000 g for 55 minutes, the synaptosomes (P2 fraction) are obtained, which are resuspended in 0.32 M […] (0.5 mL/100 mg of original weight).
(§5) The particular uptake is measured in a 96-well microtitre plate. The volume is 250 μl and the incubation proceeds at room temperature (approx. 20-25° C.) under an O2 atmosphere.
(§6) The incubation time is 7.5 minutes for [^3H]-NA and 5 minutes for [^3H]-5-HT.
(§7) The 96 samples are then filtered through a Unifilter GF/B microtitre plate (Packard) and washed with 200 mL of incubated buffer using a “Brabdel MPXRI-96T Cell-Harvester”. The Unifilter GF/B plate is dried for 1 hour at 55° C. The plate is then sealed with a Back seal (Packard) and 35 μl of scintillation fluid are added per well (Ultima Gold, Packard). After sealing with a top seal (Packard) and establishing an equilibrium (around 5 hours), radioactivity is determined in a “Trilux 1450 Microbeta” (Wallac).
(§8) The quantity of protein used in the above determination corresponds to the values known from the literature, as for example described in “Protein measurement with the folin phenol reagent”, Lowry et al., J. Biol. Chem., 193, 265-275, 1951.
(§9) A detailed description of the method may additionally be found in the literature, for example in M. Ch. Frink, H.-H. Hennies, W. Engelberger, M. Haurand and B. Wilffert (1996) Arzneim.-Forsch./Drug Res. 46 (III), 11, 1029-1036.
(§10) The corresponding literature descriptions are hereby introduced in each case as a reference and are deemed to be part of the present disclosure.
(§11) The following characteristics were determined for the NA or 5-HT transporter: […]

5-HT transporter = molecular target: T3, 5-HT transporter (Rattus norvegicus, UniProt P31652); assay: 5-HT uptake inhibition in rat brain synaptosomes (medulla and pons); assay type: biochemical
T3 construct: from tissue; host or cells: rat medulla and pons synaptosomes (P2 fraction)
T3 sequence (P31652 whole entry): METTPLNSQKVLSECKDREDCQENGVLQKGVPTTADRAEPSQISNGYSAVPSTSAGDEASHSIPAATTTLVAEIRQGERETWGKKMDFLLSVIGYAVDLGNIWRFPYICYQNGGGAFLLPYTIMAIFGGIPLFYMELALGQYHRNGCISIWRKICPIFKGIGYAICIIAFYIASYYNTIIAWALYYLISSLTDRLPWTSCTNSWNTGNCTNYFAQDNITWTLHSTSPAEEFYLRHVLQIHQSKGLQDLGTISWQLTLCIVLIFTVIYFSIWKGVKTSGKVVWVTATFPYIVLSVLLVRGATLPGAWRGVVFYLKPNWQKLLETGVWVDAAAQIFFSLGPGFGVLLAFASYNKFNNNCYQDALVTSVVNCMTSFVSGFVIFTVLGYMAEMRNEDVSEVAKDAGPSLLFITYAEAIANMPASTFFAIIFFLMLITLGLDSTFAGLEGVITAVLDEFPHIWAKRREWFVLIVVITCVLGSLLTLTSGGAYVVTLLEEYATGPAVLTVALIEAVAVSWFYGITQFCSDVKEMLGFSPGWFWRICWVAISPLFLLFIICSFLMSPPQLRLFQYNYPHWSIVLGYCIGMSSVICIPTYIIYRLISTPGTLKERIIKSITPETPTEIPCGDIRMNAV
Description: as §1, §2, §3, §4, §5, §6, §7, §8, §9, §10, §11

Compound | inhibition at 10 µM (mGluR5 receptor) | inhibition at 10 µM (NA transporter) | inhibition at 1 µM (5-HT transporter)
CC(C)(C)c1ccc(C(=O)Nc2ncc3c(n2)CCN(C(=O)c2csc(-c4ccccc4)n2)C3)cc1 [Example 29, 4-tert-butyl-N-[6-(2-phenyl-thiazole-4-carbonyl)-5,6,7,8-tetrahydro-pyrido[4,3-d]pyrimidin-2-yl]-benzamide] | 40.5% |  | 
COc1ccccc1C(=O)Nc1ncc2c(n1)CCN(C(=O)c1cc(-c3ccc(Cl)cc3)oc1C)C2 [Example 78, N-{6-[5-(4-chloro-phenyl)-2-methyl-furan-3-carbonyl]-5,6,7,8-tetrahydro-pyrido[4,3-d]pyrimidin-2-yl}-2-methoxy-benzamide] | 41.1% |  | 
CCOc1ccccc1C(=O)Nc1ncc2c(n1)CCN(S(=O)(=O)c1ccccc1C(=O)OC)C2 [Example 82, 2-[2-(2-ethoxy-benzoylamino)-7,8-dihydro-5H-pyrido[4,3-d]pyrimidine-6-sulfonyl]-benzoic acid methyl ester] | 36.3% | 32% | 
Cc1ccc(C(=O)Nc2ncc3c(n2)CCN(S(=O)(=O)c2cc(F)ccc2C)C3)cc1 [Example 107, N-[6-(5-fluoro-2-methyl-benzenesulfonyl)-5,6,7,8-tetrahydro-pyrido[4,3-d]pyrimidin-2-yl]-4-methyl-benzamide] | 38.2% | 39% | 36%
O=C(Nc1ncc2c(n1)CCN(C(=O)c1ccc(Cl)c(Cl)c1)C2)c1ccccc1F [Example 113, N-[6-(3,4-dichloro-benzoyl)-5,6,7,8-tetrahydro-pyrido[4,3-d]pyrimidin-2-yl]-2-fluoro-benzamide] | 31.3% | 67% | 45%
Cc1cc(C(=O)NC2CCc3nc(NC(=O)c4cccs4)ncc3C2)ccc1Br (stereo not shown) [Example 115, thiophene-2-carboxylic acid [6-(4-bromo-3-methyl-benzoylamino)-5,6,7,8-tetrahydro-quinazolin-2-yl]-amide] | 34.3% | 49% | 56%
COc1cccc(C(=O)Nc2ncc3c(n2)CCN(S(=O)(=O)c2cc(Br)ccc2OC)C3)c1 [Example 129, N-[6-(5-bromo-2-methoxy-benzenesulfonyl)-5,6,7,8-tetrahydro-pyrido[4,3-d]pyrimidin-2-yl]-3-methoxy-benzamide] | 51.1% |  | 
O=C(Nc1ncc2c(n1)CCN(C(=O)CCC1CCCC1)C2)c1ccncc1 [Example 132, N-[6-(3-cyclopentyl-propionyl)-5,6,7,8-tetrahydro-pyrido[4,3-d]pyrimidin-2-yl]-isonicotinamide] | 58.1% |  | 
CC(C)C(NC(=O)OCC1c2ccccc2-c2ccccc21)C(=O)NC1CCc2nc(NC(=O)c3cccs3)ncc2C1 (stereo not shown) [Example 139, (2-methyl-1-{2-[(thiophene-2-carbonyl)-amino]-5,6,7,8-tetrahydro-quinazolin-6-ylcarbamoyl}-propyl)-carbamic acid 9H-fluoren-9-ylmethyl ester] | 31% |  | 
Cc1ccc(S(=O)(=O)N2CCc3nc(NC(=O)c4cccc(F)c4)ncc3C2)cc1 [Example 143, 3-fluoro-N-[6-(toluene-4-sulfonyl)-5,6,7,8-tetrahydro-pyrido[4,3-d]pyrimidin-2-yl]-benzamide] | 37.2% | 53% | 
CCOc1ccccc1C(=O)Nc1ncc2c(n1)CCN(C(=O)c1sccc1Cl)C2 [Example 145, N-[6-(3-chloro-thiophene-2-carbonyl)-5,6,7,8-tetrahydro-pyrido[4,3-d]pyrimidin-2-yl]-2-ethoxy-benzamide] | 84.4% |  | 
CCCC(=O)Nc1ncc2c(n1)CCC(NS(=O)(=O)c1cccc(C)c1)C2 (stereo not shown) [Example 146, N-[6-(toluene-3-sulfonylamino)-5,6,7,8-tetrahydro-quinazolin-2-yl]-butyramide] | 39.6% |  | 
O=C(Nc1ncc2c(n1)CCN(C(=O)c1ccc(F)cc1F)C2)c1ccc(Cl)cc1 [Example 152, 4-chloro-N-[6-(2,4-difluoro-benzoyl)-5,6,7,8-tetrahydro-pyrido[4,3-d]pyrimidin-2-yl]-benzamide] | 34% |  | 33%
Cc1ccc(C(=O)N2CCc3nc(NC(=O)c4cccc5ccccc45)ncc3C2)cc1F [Example 154, naphthalene-1-carboxylic acid [6-(3-fluoro-4-methyl-benzoyl)-5,6,7,8-tetrahydro-pyrido[4,3-d]pyrimidin-2-yl]-amide] | 30.7% | 50% | 
O=C(Nc1ncc2c(n1)CCN(C(=O)c1ccc(Cl)c(Cl)c1)C2)c1cccnc1 [Example 156, N-[6-(3,4-dichloro-benzoyl)-5,6,7,8-tetrahydro-pyrido[4,3-d]pyrimidin-2-yl]-nicotinamide] | 46% | 50% | 
CCCC(=O)Nc1ncc2c(n1)CCC(NC(=O)C=Cc1cccc(C(F)(F)F)c1)C2 (stereo not shown) [Example 168, N-(2-butyrylamino-5,6,7,8-tetrahydro-quinazolin-6-yl)-3-(3-trifluoromethyl-phenyl)-acrylamide] | 33.5% |  | 46%
O=C(Cc1cccc2ccccc12)NC1CCc2nc(NC(=O)c3cccs3)ncc2C1 (stereo not shown) [Example 177, thiophene-2-carboxylic acid [6-(2-naphthalen-1-yl-acetylamino)-5,6,7,8-tetrahydro-quinazolin-2-yl]-amide] | 42% |  | 39%
O=C(Nc1ncc2c(n1)CCN(S(=O)(=O)Cc1ccccc1)C2)c1ccc(F)cc1 [Example 178, 4-fluoro-N-(6-phenylmethanesulfonyl-5,6,7,8-tetrahydro-pyrido[4,3-d]pyrimidin-2-yl)-benzamide] | 45.3% |  | 
O=C(Nc1ncc2c(n1)CCC(NS(=O)(=O)c1cc(Cl)sc1Cl)C2)c1cccs1 (stereo not shown) [Example 180, thiophene-2-carboxylic acid [6-(2,5-dichloro-thiophene-3-sulfonylamino)-5,6,7,8-tetrahydro-quinazolin-2-yl]-amide] | 86.7% | 34% | 
O=C(CCCCCNC(=O)OCc1ccccc1)NC1CCc2nc(NC(=O)c3ccc(F)cc3)ncc2C1 (stereo not shown) [Example 181, {5-[2-(4-fluoro-benzoylamino)-5,6,7,8-tetrahydro-quinazolin-6-ylcarbamoyl]-pentyl}-carbamic acid benzyl ester] | 36.4% |  | 
CC(C)(C)OC(=O)N1CCC(C(=O)NC2CCc3nc(NC(=O)c4ccc(F)cc4)ncc3C2)CC1 (stereo not shown) [Example 194, 4-[2-(4-fluoro-benzoylamino)-5,6,7,8-tetrahydro-quinazolin-6-ylcarbamoyl]-piperidine-1-carboxylic acid tert-butyl ester] | 45.6% |  | 
Cc1nc(C(F)(F)F)ccc1C(=O)NC1CCc2nc(NC(=O)c3ccc(F)cc3)ncc2C1 (stereo not shown) [Example 197, N-[2-(4-fluoro-benzoylamino)-5,6,7,8-tetrahydro-quinazolin-6-yl]-2-methyl-6-trifluoromethyl-nicotinamide] | 32.1% |  | 
O=C(Nc1ncc2c(n1)CCC(NS(=O)(=O)c1ccc(Cl)s1)C2)c1ccc(F)cc1 (stereo not shown) [Example 202, N-[6-(5-chloro-thiophene-2-sulfonylamino)-5,6,7,8-tetrahydro-quinazolin-2-yl]-4-fluoro-benzamide] | 33.1% |  | 
